Data as given in US20240116985A1, “STAPLED PEPTIDES AND METHODS THEREOF” (priority 2020, published 2024).
pIC50: −log10 of the molar value. In brackets after ≈: the same amount, converted by molar mass. Where two headings read alike, the source gives them in different places.

What was measured:
[1] = molecular target: T1, full-length beta-Catenin (Uniprot ID P35222) (Homo sapiens, UniProt P35222); assay: Fluorescence polarization IC50 (beta-catenin / 5FAM-TCF4 10-53 competition); assay type: binding; settings: read-out: beta-Catenin FP IC50
T1 construct: 10 nM full-length beta-Catenin (Uniprot ID P35222)
T1 sequence (P35222 1-781): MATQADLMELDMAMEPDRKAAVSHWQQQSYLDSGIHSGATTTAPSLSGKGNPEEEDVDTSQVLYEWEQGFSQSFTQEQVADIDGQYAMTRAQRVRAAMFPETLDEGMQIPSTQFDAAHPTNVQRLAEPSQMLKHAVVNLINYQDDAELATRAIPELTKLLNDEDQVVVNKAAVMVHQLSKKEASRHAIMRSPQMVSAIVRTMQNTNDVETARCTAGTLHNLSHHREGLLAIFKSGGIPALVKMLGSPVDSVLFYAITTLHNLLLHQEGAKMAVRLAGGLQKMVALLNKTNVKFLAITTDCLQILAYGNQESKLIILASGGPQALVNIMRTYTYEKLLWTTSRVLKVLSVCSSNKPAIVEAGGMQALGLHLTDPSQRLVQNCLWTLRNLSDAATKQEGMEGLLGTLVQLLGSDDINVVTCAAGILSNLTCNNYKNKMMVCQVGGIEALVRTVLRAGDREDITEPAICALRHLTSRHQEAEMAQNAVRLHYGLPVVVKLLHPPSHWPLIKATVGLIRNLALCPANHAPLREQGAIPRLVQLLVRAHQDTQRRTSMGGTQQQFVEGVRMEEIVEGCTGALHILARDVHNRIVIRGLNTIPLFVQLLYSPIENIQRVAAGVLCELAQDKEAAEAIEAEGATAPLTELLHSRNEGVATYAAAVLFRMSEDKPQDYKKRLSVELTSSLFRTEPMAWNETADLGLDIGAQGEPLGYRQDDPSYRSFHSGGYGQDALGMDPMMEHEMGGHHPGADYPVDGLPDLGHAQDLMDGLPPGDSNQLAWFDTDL

Solubility in PBS = assay type: physicochemical
Procedure, shortened: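 PBS sample ultracentrifuged; supernatant run on HPLC vs. 50 μM peptide in DMSO standard. Solubility = (PBS peak area / DMSO peak area) × 50 uM.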

[2] = molecular target: T2, beta-catenin/TCF4 engagement (Homo sapiens, UniProt P35222); assay: Nano-BRET target engagement assay (B-cat-Halo & TCF4-Luc in HEK293 cells); assay type: cell-based; settings: absolute IC50; read-out: NanoBRET Abs IC50
T2 construct: expressed in transfected cells; host or cells: HEK293
T2 sequence (P35222 1-781): T1 sequence (P35222 1-781)

SMILES | pIC50 [1] | Solubility (Solubility in PBS; Solubility (uM)) [µM] | pIC50 [2] | pIC50 ([1]; fluorescence polarization) | Solubility (Solubility in PBS) [µM]
CC(=O)N1CCC[C@]12CC=CCCCC1(CCCC=CCCCOC(=O)N3CC[C@@](C(=O)N[C@@H](Cc4ccccc4Cl)C(=O)N[C@@H](Cc4csc5ccccc45)C(=O)N[C@@H](CCCCNC(C)C)C(N)=O)(C3)NC(=O)[C@H](CC(N)=O)NC(=O)[C@H](Cc3ccccc3)NC(=O)[C@H](C)NC(=O)[C@H](C)NC(=O)[C@H](CC(=O)O)NC(=O)[C@H](CC(=O)O)NC1=O)NC(=O)[C@H](CC(C)(C)C)NC(=O)[C@H](CC(=O)O)NC2=O (stereo partly drawn) [I-1130, Ac-PL3-Asp-Npg-B5-Asp-Asp-Ala-Ala-Phe-Asn-PyrS2-2C1F-BztA-iPrLys-NH2] | 8.22 | 15 (≈ 29.8 µg/mL) | 5.12 |  | 
CC(=O)N1CCC[C@]12CC=CCCCC1(CCCC=CCCCOC(=O)N3CC[C@@](C(=O)N[C@@H](Cc4ccccc4Cl)C(=O)N[C@@H](Cc4csc5ccccc45)C(=O)N[C@@H](CCC(N)=O)C(N)=O)(C3)NC(=O)[C@H](CC(N)=O)NC(=O)[C@H](Cc3ccccc3)NC(=O)[C@H](C)NC(=O)[C@H](CCCCNC(C)C)NC(=O)[C@H](CC(=O)O)NC(=O)[C@H](CC(=O)O)NC1=O)NC(=O)[C@H](CC(C)(C)C)NC(=O)[C@H](CC(=O)O)NC2=O (stereo partly drawn) [I-1131, Ac-PL3-Asp-Npg-B5-Asp-Asp-iPrLys-Ala-Phe-Asn-PyrS2-2C1F-BztA-Gln-NH2] | 8.15 | 39 (≈ 79.8 µg/mL) | 4.73 |  | 
CC(=O)N1CCC[C@]12CC=CCCCC1(CCCC=CCCCOC(=O)N3CC[C@@](C(=O)N[C@@H](Cc4ccccc4Cl)C(=O)N[C@@H](Cc4csc5ccccc45)C(=O)N[C@@H](C(N)=O)[C@H](C)O)(C3)NC(=O)[C@H](CO)NC(=O)[C@H](Cc3ccccc3)NC(=O)[C@H](C)NC(=O)[C@H](C)NC(=O)[C@H](CC(=O)O)NC(=O)[C@H](CC(=O)O)NC1=O)NC(=O)[C@H](CC1CCCCC1)NC(=O)[C@H](CC(=O)O)NC2=O (stereo partly drawn) [I-1136, Ac-PL3-Asp-Cha-B5-Asp-Asp-Ala-Ala-Phe-Ser-PyrS2-2C1F-BztA-dThr-NH2] |  | 40 (≈ 76.7 µg/mL) | 4.83 | 7.80 | 
CC(=O)N1CCC[C@]12CC=CCCCC1(CCCC=CCCCOC(=O)N3CC[C@@](C(=O)N[C@@H](Cc4ccccc4Cl)C(=O)N[C@@H](Cc4csc5ccccc45)C(=O)N[C@@H](C(N)=O)[C@H](C)O)(C3)NC(=O)[C@H](CC(C)C)NC(=O)[C@H](Cc3ccccc3)NC(=O)[C@H](C)NC(=O)[C@H](C)NC(=O)[C@H](CC(=O)O)NC(=O)[C@H](CC(=O)O)NC1=O)NC(=O)[C@H](CC1CCCCC1)NC(=O)[C@H](CC(=O)O)NC2=O (stereo partly drawn) [I-1140, Ac-PL3-Asp-Cha-B5-Asp-Asp-Ala-Ala-Phe-Leu-PyrS2-2C1F-BztA-dThr-NH2] |  |  | 4.49 | 7.48 | 10 (≈ 19.4 µg/mL)
CC(=O)N1CCC[C@]12CC=CCCCC1(CCCC=CCCCOC(=O)N3CC[C@@](C(=O)N[C@@H](Cc4ccccc4)C(=O)N[C@@H](Cc4csc5ccccc45)C(=O)N[C@@H](CCC(N)=O)C(N)=O)(C3)NC(=O)[C@H](CC(C)C)NC(=O)[C@H](Cc3ccccc3)NC(=O)[C@H](C)NC(=O)[C@H](CCCCNC(C)C)NC(=O)[C@H]([C@@H](C)O)NC(=O)[C@H](CC(=O)O)NC1=O)NC(=O)[C@H](C)NC(=O)[C@H](CC(N)=O)NC2=O (stereo partly drawn) [I-1382, Ac-PL3-Asn-Ala-B5-Asp-Thr-iPrLys-Ala-Phe-Leu-PyrS2-Phe-BztA-Gln-NH2] |  |  |  | 5.54 | 10 (≈ 19.4 µg/mL)
CC(=O)N1CCC[C@]12CC=CCCCC1(CCCC=CCCCOC(=O)N3CC[C@@](C(=O)N[C@@H](Cc4ccccc4)C(=O)N[C@@H](Cc4csc5ccccc45)C(=O)N[C@@H](CCCCN)C(N)=O)(C3)NC(=O)[C@H](CC(C)C)NC(=O)[C@H](Cc3ccccc3)NC(=O)[C@H](C)NC(=O)[C@H](CCCCNC(C)C)NC(=O)[C@H]([C@@H](C)O)NC(=O)[C@H](CC(=O)O)NC1=O)NC(=O)[C@H](C)NC(=O)[C@H](CC(N)=O)NC2=O (stereo partly drawn) [I-1383, Ac-PL3-Asn-Ala-B5-Asp-Thr-iPrLys-Ala-Phe-Leu-PyrS2-Phe-BztA-Lys-NH2] |  |  |  | 5.78 | 10 (≈ 19.4 µg/mL)

Other lines, results leading:

pIC50 [1] | Solubility (Solubility in PBS; Solubility (uM)) [µM] | pIC50 [2] | pIC50 ([1]; fluorescence polarization) | Solubility (Solubility in PBS) [µM] | SMILES
7.68 | 49 (≈ 100 µg/mL) | < 4.70 |  |  | CC(=O)N1CCC[C@]12CC=CCCCC1(CCCC=CCCCOC(=O)N3CC[C@@](C(=O)N[C@@H](Cc4ccccc4Cl)C(=O)N[C@@H](Cc4csc5ccccc45)C(=O)N[C@@H](CCC(N)=O)C(N)=O)(C3)NC(=O)[C@H](CC(N)=O)NC(=O)[C@H](Cc3ccccc3)NC(=O)[C@H](CCCCNC(C)C)NC(=O)[C@H](C)NC(=O)[C@H](CC(=O)O)NC(=O)[C@H](CC(=O)O)NC1=O)NC(=O)[C@H](CC(C)(C)C)NC(=O)[C@H](CC(=O)O)NC2=O (stereo partly drawn) [I-1132, Ac-PL3-Asp-Npg-B5-Asp-Asp-Ala-iPrLys-Phe-Asn-PyrS2-2C1F-BztA-Gln-NH2]
 | 44 (≈ 84.2 µg/mL) | 4.56 | 7.89 |  | CC(=O)N1CCC[C@]12CC=CCCCC1(CCCC=CCCCOC(=O)N3CC[C@@](C(=O)N[C@@H](Cc4ccccc4Cl)C(=O)N[C@@H](Cc4csc5ccccc45)C(=O)N[C@H](C(N)=O)[C@@H](C)O)(C3)NC(=O)[C@H](CO)NC(=O)[C@H](Cc3ccccc3)NC(=O)[C@H](C)NC(=O)[C@H](C)NC(=O)[C@H](CC(=O)O)NC(=O)[C@H](CC(=O)O)NC1=O)NC(=O)[C@H](Cc1ccccc1)NC(=O)[C@H](CC(=O)O)NC2=O (stereo partly drawn) [I-1141, Ac-PL3-Asp-Phe-B5-Asp-Asp-Ala-Ala-Phe-Ser-PyrS2-2C1F-BztA-Thr-NH2]
 | 46 (≈ 88 µg/mL) | < 4.70 | 7.66 |  | CC(=O)N1CCC[C@]12CC=CCCCC1(CCCC=CCCCOC(=O)N3CC[C@@](C(=O)N[C@@H](Cc4ccccc4Cl)C(=O)N[C@@H](Cc4csc5ccccc45)C(=O)N[C@@H](C(N)=O)[C@H](C)O)(C3)NC(=O)[C@H](CO)NC(=O)[C@H](Cc3ccccc3)NC(=O)[C@H](C)NC(=O)[C@H](C)NC(=O)[C@H](CC(=O)O)NC(=O)[C@H](CC(=O)O)NC1=O)NC(=O)[C@H](Cc1ccccc1)NC(=O)[C@H](CC(=O)O)NC2=O (stereo partly drawn) [I-1142, Ac-PL3-Asp-Phe-B5-Asp-Asp-Ala-Ala-Phe-Ser-PyrS2-2C1F-BztA-dThr-NH2]
 | 44 (≈ 84.2 µg/mL) | 4.48 | 7.92 |  | CC(=O)N1CCC[C@]12CC=CCCCC1(CCCC=CCCCOC(=O)N3CC[C@@](C(=O)N[C@@H](Cc4ccccc4Cl)C(=O)N[C@@H](Cc4csc5ccccc45)C(=O)N[C@@H](CCO)C(N)=O)(C3)NC(=O)[C@H](CO)NC(=O)[C@H](Cc3ccccc3)NC(=O)[C@H](C)NC(=O)[C@H](C)NC(=O)[C@H](CC(=O)O)NC(=O)[C@H](CC(=O)O)NC1=O)NC(=O)[C@H](Cc1ccccc1)NC(=O)[C@H](CC(=O)O)NC2=O (stereo partly drawn) [I-1143, Ac-PL3-Asp-Phe-B5-Asp-Asp-Ala-Ala-Phe-Ser-PyrS2-2C1F-BztA-Hse-NH2]
 |  |  | 5.97 | 10 (≈ 19.7 µg/mL) | CC(=O)N1CCC[C@]12CC=CCCCC1(CCCC=CCCCOC(=O)N3CC[C@@](C(=O)N[C@@H](Cc4ccccc4)C(=O)N[C@@H](Cc4csc5ccccc45)C(=O)N[C@@H](CCC(N)=O)C(N)=O)(C3)NC(=O)[C@H](CC(C)C)NC(=O)[C@H](Cc3ccccc3)NC(=O)[C@H](C)NC(=O)[C@H](CCCCNC(C)C)NC(=O)[C@H](CCC(N)=O)NC(=O)[C@H](CC(=O)O)NC1=O)NC(=O)[C@H](C)NC(=O)[C@H](CC(N)=O)NC2=O (stereo partly drawn) [I-1385, Ac-PL3-Asn-Ala-B5-Asp-Gln-iPrLys-Ala-Phe-Leu-PyrS2-Phe-BztA-Gln-NH2]
 |  |  | 5.65 | 10 (≈ 19.7 µg/mL) | CC(=O)N1CCC[C@]12CC=CCCCC1(CCCC=CCCCOC(=O)N3CC[C@@](C(=O)N[C@@H](Cc4ccccc4)C(=O)N[C@@H](Cc4csc5ccccc45)C(=O)N[C@@H](CCC(N)=O)C(N)=O)(C3)NC(=O)[C@H](CC(C)C)NC(=O)[C@H](Cc3ccccc3)NC(=O)[C@H](C)NC(=O)[C@H](CCCCNC(C)C)NC(=O)[C@H](CCCCN)NC(=O)[C@H](CC(=O)O)NC1=O)NC(=O)[C@H](C)NC(=O)[C@H](CC(N)=O)NC2=O (stereo partly drawn) [I-1386, Ac-PL3-Asn-Ala-B5-Asp-Lys-iPrLys-Ala-Phe-Leu-PyrS2-Phe-BztA-Gln-NH2]
 |  |  | 5.16 | 10 (≈ 19.3 µg/mL) | CC(=O)N1CCC[C@]12CC=CCCCC1(CCCC=CCCCOC(=O)N3CC[C@@](C(=O)N[C@@H](Cc4ccccc4)C(=O)N[C@@H](Cc4ccc5ccccc5c4)C(=O)N[C@@H](CCC(N)=O)C(N)=O)(C3)NC(=O)[C@H](CC(C)C)NC(=O)[C@H](Cc3ccccc3)NC(=O)[C@H](C)NC(=O)[C@H](CCCCNC(C)C)NC(=O)[C@H]([C@@H](C)O)NC(=O)[C@H](CC(=O)O)NC1=O)NC(=O)[C@H](C)NC(=O)[C@H](CC(N)=O)NC2=O (stereo partly drawn) [I-1387, Ac-PL3-Asn-Ala-B5-Asp-Thr-iPrLys-Ala-Phe-Leu-PyrS2-Phe-2NapA-Gln-NH2]
